Test results published in patent publication US7098169B2, “Herbicide-safener combination based on isoxazoline carboxylate safeners” (Bayer CropScience GmbH, priority 2001, dated 2006).

Assays:
Format in all cases: in vivo
ZEAMA = Zea mays (maize) = test: Post-emergence treatment, safening by (Ib), visual injury score in maize (Table 1)
Protocol: 3.2 Effect of the Herbicide and Effect of the Safener when Applied Pre-Emergence Seeds or rhizome pieces of mono- and dicotyledenous harmful plants and of crop plants are placed in sandy loam soil in plastic pots, covered with soil and cultivated in a greenhouse under good growth conditions. Alternatively, harmful plants encountered in paddy rice cultivation are cultivated in pots where the water level is up to 2 cm above the soil surface. Three weeks after sowing, the test plants are treated at the three-leaf stage. […] In a series of trials the ability of herbicides to be […] by safener (Ib) was evaluated.

[1] = test system: HORVS = Hordeum vulgare (barley); test: Pre-emergence application of herbicide-safener combination, visual injury score in barley (Table 3); details: application rate 300 g a.i./ha (herbicide alone)
Protocol: (§1) The damage to the plants is assessed visually on a scale of 0–100% in comparison with control plants: • 0%=no noticeable effect in comparison with the untreated plant • 100%=the treated plant dies off. 3.2 Effect of the Herbicide and Effect of the Safener when Applied Pre-Emergence
(§2) Seeds or rhizome pieces of mono- and dicotyledonous harmful plants and of crop plants are placed in sandy loam soil in plastic pots of a diameter of 9 cm and covered with soil. Alternatively, harmful plants encountered in paddy rice cultivation are cultivated in water-saturated soil, where the amount of water poured into the pots is such that the water level is at the soil surface, or some millimeters above the soil surface. The herbicide/safener active compound combinations according to the invention, formulated in the form of emulsion concentrates, and, in parallel tests, the correspondingly formulated individual active compounds are then applied as emulsions to the surface of the soil cover in various dosages using an amount of water of 300 l/ha (converted), or, in the case of rice, are poured into the irrigation water. After the treatment, the pots are placed in a greenhouse and kept under good growth conditions for the weeds. […]

[2] = test system: TRZAS, Triticum aestivum (wheat); test: Pre-emergence application of herbicide-safener combination, visual injury score in wheat (Table 2); details: application rate 300 g a.i./ha
Protocol: as §1, §2

For CCOC(=O)C(Cl)Cc1cc(-n2nc(C)n(C(F)F)c2=O)c(F)cc1Cl (racemic) [(B4-1), ethyl (RS)-2-chloro-3-[2-chloro-5-(4-difluoromethyl-4,5-dihydro-3-methyl-5-oxo-1H-1,2,4-triazol-1-yl)-4-fluorophenyl]propionate], the “% injury to ZEAMA” value (ZEAMA = Zea mays (maize); application rate 36 g a.i./ha) was 11%.

With COc1ncc(F)c2nc(S(=O)(=O)Nc3c(F)cccc3F)nn12 [(B1-1), N-(2,6difluorophenyl)-8-fluoro-5-methoxy-1,2,4-triazolo[1,5-c]pyrimidin-2-sulfonamide] the “% injury to ZEAMA” value (ZEAMA = Zea mays (maize); application rate 10 g a.i./ha) was 18%.

In the case of CCOc1nc(F)cc2nc(S(=O)(=O)Nc3c(Cl)cccc3C(=O)OC)nn12 [(B1-2), methyl 3-chloro-(5-ethoxy-7-fluoro[1,2,4]triazole-[1,5-c]pyrimidin-2-ylsulfonamido)-benzoate], the “% injury to ZEAMA” value (ZEAMA = Zea mays (maize); application rate 30 g a.i./ha) is reported as 32%.

O=C(O)COc1nc(Cl)c(Cl)cc1Cl [(B2-3), 3,5,6-trichloro-2-pyridyloxyacetic acid] was tested, and the “% injury to ZEAMA” value (ZEAMA = Zea mays (maize); application rate 420 g a.i./ha) was 22%.

In the case of Nc1c(Cl)c(F)nc(OCC(=O)O)c1Cl [(B2-4), 4-amino-3,5-dichloro-6-fluoro-2-pyridyloxyacetic acid], the “% injury to ZEAMA” value (ZEAMA = Zea mays (maize); application rate 160 g a.i./ha) is reported as 9%.

With CSc1nnc(C(C)(C)C)c(=O)n1N [(B3-1), 4-amino-6-tert-butyl-4,5-dihydro3-methylthio-1,2,4-triazin-5-one] the “% injury to ZEAMA” value (ZEAMA = Zea mays (maize); application rate 560 g a.i./ha) was 23%.

In the case of CCc1cccc(C)c1N(C(=O)CCl)[C@@H](C)COC [(B5-1)], the “% injury to HORVS” value [1] is reported as 15% and the “% injury to TRZAS” value [2] is reported as 70%.
